Measured values published in patent US9763963B2, “Topically active steroids for use in interstitial pulmonary fibrosis” (Soligenix, Inc., priority 2008, dated 2017).
“And” between values parts separate entries of the source, which are not always exact repeats. Equal values may be shown once.

What was measured:
[1] = BDP and 17-BMP in plasma of right atrial blood after oral BDP; details: oral BDP 2 mg
Procedure: Pharmacokinetic parameters were calculated using WinNonlin v. […] Plasma concentration-time data were plotted and non-compartmental parameters were calculated using the linear trapezoidal rule. Estimates for half-lives were obtained using regression analysis by specifying an appropriate range of time points for the most linear portions of the log concentration-linear time data.

[2] = bioavailability study of oral BDP, given orally and intravenously to 12 healthy subjects
[3] = test system: pulmonary function (FVC, FEV1, TLC, DLCO); assay: pulmonary function testing after allogeneic HCT, oral BDP versus placebo; format: in vivo, human
From the text: Patients whose symptoms were controlled at study day ten continued on study drug while the prednisone dose was rapidly tapered. Patients whose symptoms required additional prednisone were considered treatment failures. Study drug was discontinued on the day of treatment failure. The duration of treatment with study drug was 30 days with a 10-day follow-up period in the first trial and 50 days with a 30-day follow-up period in the second trial.
Pulmonary function assessments included forced vital capacity (FVC), one-second forced expiratory volume (FEV1), total lung capacity (TLC), and carbon monoxide diffusion capacity (DLCO), which was adjusted for hemoglobin level at the time PFTs were obtained. All PFT values were expressed as a percent of the predicted value calculated according to published equations (Crapo R O et al., Am Rev Respir Dis, 1981; 123:659-664; Crapo R O et al., Am Rev Respir Dis, 1981; 123:185-189). Pretransplantation and Day 80 PFTs were obtained, regardless of the presence or absence of symptoms. After discharge, patients were encouraged to return at one year after transplantation, at which time another PFT was obtained. For purposes of the current study, PFTs performed between days 60 and 100 were considered as valid for the Day 80 PFT and tests performed between days 265 and 465 as valid for the one-year PFT. Change in lung function was assessed by comparing PFT parameters performed prior to start of conditioning to those obtained post-transplantation at Day 80 and one year. Analysis of change in lung function was done on an intent-to-treat basis, by randomization assignment to oral BDP or placebo, with maintenance of the study blind.

[4] = test system: noninfectious pulmonary complications; assay: noninfectious pulmonary complications after randomization (record review); format: in vivo, human
From the text: (§1) While blinded to randomization assignment, investigators reviewed all patients' pulmonary radiologic records accumulated from the time of randomization to one year after transplantation. The medical records of all patients with abnormal pulmonary radiological findings were reviewed to determine whether the pulmonary disease was a clinically significant noninfectious or infectious syndrome. Clinically significant noninfectious pulmonary syndromes included idiopathic pneumonia syndrome (IPS), defined as widespread alveolar injury in the absence of active lower respiratory tract infection after HCT (Freudenberger T D et al., Blood, 2003; 102:3822-3828, diffuse alveolar hemorrhage (DAH), defined as IPS with bronchioalveolar lavage showing progressively bloodier return, or biopsy-proven cryptogenic organizing pneumonia (COP) otherwise known as bronchiolitis obliterans organizing pneumonia (BOOP). Clinically significant pulmonary infection required microbiologic documentation of an infectious agent in the respiratory tract via bronchoscopy or resolution of pulmonary abnormalities after empirical antibiotic therapy with no addition of immunosuppressive agents.

pulmonary infection = assay: pulmonary infections after randomization (record review); format: in vivo, human
From the text: as §1

[5] = test system: gastrointestinal graft-versus-host disease (GVHD); details: cited from earlier work
[6] = pre-HCT baseline to transplant day 80

CCC(=O)O[C@]1(C(=O)CO)[C@@H](C)C[C@H]2[C@@H]3CCC4=CC(=O)C=C[C@]4(C)[C@@]3(Cl)[C@@H](O)C[C@@]21C [17-BMP, 17-beclomethasone monopropionate]
time of peak concentration in right atrial blood, median ([1]; study Day 50, four patients): 1.5 h
median half-life ([1]; study Day 50, range 3.1-6.8): 6.3 h
median Cm ([1]; study Day 50, range 632-3701): 1738 pg/mL
total oral bioavailability ([2]; active metabolite after oral BDP, unpublished data): 21-41%

beclomethasone 17,21-dipropionate [BDP]
DLCO: mean decrease from baseline to one year ([3]; 32 patients with data, placebo 15.27%, p=0.11): 7.67%
DLCO, pulmonary function at one year ([3]; mean, n = 33): 78.1% of predicted normal values
FEV1, pulmonary function at one year ([3]; mean, n = 33): 85.9% of predicted normal values
FVC, pulmonary function at one year ([3]; mean, n = 33): 89.4% of predicted normal values
TLC, pulmonary function at one year ([3]; mean, n = 33): 95.7% of predicted normal values
DLCO, pulmonary function at Day 80 ([3]; mean, n = 54): 86.0% of predicted normal values
TLC, pulmonary function at Day 80 ([3]; mean, n = 55): 96.9% of predicted normal values
FEV1, pulmonary function at Day 80 ([3]; mean, n = 56): 90.3% of predicted normal values
FVC, pulmonary function at Day 80 ([3]; mean, n = 56): 93.8% of predicted normal values
FEV1: mean change ([3]; pre-HCT baseline to day 80, percent of predicted, range −22, +34, p 0.48): −0.05
TLC: mean change ([3]; pre-HCT baseline to day 80, percent of predicted, range −25, +57, p 0.23): +1.41
FVC: mean change ([3]; pre-HCT baseline to day 80, percent of predicted, range −30, +35, p 0.26): +0.34
FEV1: % of patients who experienced a decrease [3, 6]: (50) %
FVC: % of patients who experienced a decrease [3, 6]: (50) %
TLC: % of patients who experienced a decrease [3, 6]: (58) %
DLCO: N, proportion of patients who experienced a decrease ([3]; pre-HCT baseline to transplant day 80, p 0.02): 27 of 49 and 27/49
FVC: N, proportion of patients who experienced a decrease ([3]; pre-HCT baseline to transplant day 80, p 0.66): 25/50
FEV1: N, proportion of patients who experienced a decrease ([3]; pre-HCT baseline to transplant day 80, p 0.83): 25/50
TLC: N, proportion of patients who experienced a decrease ([3]; pre-HCT baseline to transplant day 80, p 0.88): 29/50
noninfectious events ([4]; after Day 200): four
cases of noninfectious pulmonary complications ([4]; first 200 days after randomization, 60 patients, placebo four): no cases
day of noninfectious event ([4]; in order: COP/BOOP, IPS, bronchiolitis obliterans syndrome, DAH): 207 days and 212 days and 244 days and 269 days
cases of pulmonary infection (pulmonary infection; first 200 days after randomization): 6
cases of pulmonary infection (pulmonary infection; first year after randomization, 60 patients, placebo 11): 8
share of first-year pulmonary infections that occurred in the first 200 days (pulmonary infection; in vivo): 75%
patients who developed noninfectious pulmonary infiltrative disorders ([5]; 80-day study period, placebo 12/67 (18%)): 0/62
multiple bacteremic episodes ([5]; most recent trial, placebo 9%): none
fungal infections ([5]; most recent trial, placebo 14%): 7%
cytomegalovirus reactivations ([5]; most recent trial, placebo 39%): 28%
reduction in mortality risk ([5]; one-year post-randomization): 45%
intravenous dexamethasone dose of equivalent systemic exposure ([2]; oral BDP 2 mg): less than 1 mg
oral prednisone dose of equivalent systemic exposure ([2]; oral BDP 2 mg): 2.5 mg
